Results taken from US20180162871A1, “FLUORESCENT PROBE FOR DETECTING CALPAIN ACTIVITY” (The University of Tokyo, priority 2015, published 2018).
Non-standard residues stand in square brackets, D forms with d. Residues, ends and D or L forms follow the SMILES beside them. Nle = CCCC[C@H](N)C(=O)O

Legend:
[1] = Measurement of the optical properties; assay type: physicochemical; settings: 0.2 M sodium phosphate buffer of pH 2
Protocol: The optochemical properties of Ac-LLY-HMRG and Ac-LM-HMRG were measured in 0.2 M sodium phosphate buffer of pH 2.

[2] = target: T1, calpain-1 from human erythrocytes (Homo sapiens, UniProt P07384); experiment: In vitro enzyme assay using calpain (calpain 1); assay type: biochemical; settings: probe 1 μM, 50 mM Tris buffer pH 7.4, 5 μM CaCl2, 25° C., excitation 495 nm, fluorescence 524 nm
T1 construct: calpain-1 from human erythrocytes; purchased 208713; host or cells: purified from human erythrocytes
T1 sequence (P07384 1-714): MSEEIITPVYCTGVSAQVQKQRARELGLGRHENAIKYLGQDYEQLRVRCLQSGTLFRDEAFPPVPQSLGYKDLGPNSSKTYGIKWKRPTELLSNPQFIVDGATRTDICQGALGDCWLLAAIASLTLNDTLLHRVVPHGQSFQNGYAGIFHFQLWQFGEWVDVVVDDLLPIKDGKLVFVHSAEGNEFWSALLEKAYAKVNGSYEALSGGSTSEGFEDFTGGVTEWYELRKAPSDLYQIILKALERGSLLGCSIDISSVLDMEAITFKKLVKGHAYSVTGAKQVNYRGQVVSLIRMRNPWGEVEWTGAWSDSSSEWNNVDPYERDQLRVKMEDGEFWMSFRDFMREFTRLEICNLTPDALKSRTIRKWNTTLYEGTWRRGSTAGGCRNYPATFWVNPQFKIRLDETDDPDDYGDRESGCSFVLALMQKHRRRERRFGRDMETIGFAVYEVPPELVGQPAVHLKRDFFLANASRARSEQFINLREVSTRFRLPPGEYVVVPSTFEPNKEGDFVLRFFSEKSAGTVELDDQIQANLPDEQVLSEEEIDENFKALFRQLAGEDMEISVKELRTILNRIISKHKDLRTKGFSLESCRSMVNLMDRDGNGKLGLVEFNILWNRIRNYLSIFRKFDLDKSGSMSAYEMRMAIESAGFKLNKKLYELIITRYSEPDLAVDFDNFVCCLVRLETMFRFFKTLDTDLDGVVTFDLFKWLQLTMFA
T1 sequence (P04632 1-268 partner): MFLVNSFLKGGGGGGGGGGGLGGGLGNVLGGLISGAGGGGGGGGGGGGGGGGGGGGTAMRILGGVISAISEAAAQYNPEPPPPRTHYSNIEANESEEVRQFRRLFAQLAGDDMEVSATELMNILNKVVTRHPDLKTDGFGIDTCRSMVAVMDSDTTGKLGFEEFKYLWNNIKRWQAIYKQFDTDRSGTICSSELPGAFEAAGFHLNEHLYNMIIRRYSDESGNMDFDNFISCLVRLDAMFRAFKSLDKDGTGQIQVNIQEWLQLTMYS
Protocol: (§1) A calpain enzyme addition assay was conducted in Tris buffer under the following conditions using a probe synthesized and designed by the above method. As a result, the absorption and fluorescence intensity of Ac-LLY-HMRG increased about two-fold due to the enzymatic reaction, and it was confirmed to function as a calpain probe. The results are shown in FIG. 1a (using calpain 1) and FIG. 1b (using calpain 2).
(§2) A quantity of 3 μL of a DMSO solution (1 mM) of the probe was dissolved in 3 mL of 50 mM Tris buffer (pH 7.4) (containing 5 μM of CaCl2 for calpain 1 and 500 μM of CaCl2 for calpain 2) (final probe concentration: 1 μM). […] The excitation wavelength was 495 nm, and the fluorescence wavelength was 524 nm. […]
(§3) A calpain enzyme addition assay was conducted in Tris buffer using a probe synthesized and designed by the above method. As a result, the absorption and fluorescence intensity of Ac-LM-HMRG increased about four-fold due to the enzymatic reaction with calpain 2, and it was confirmed to function as a calpain probe. […]
(§4) A quantity of 3 μL of a DMSO solution (1 mM) of the probe was dissolved in 3 mL of 50 mM Tris buffer (pH 7.4) (containing 5 μM of CaCl2 for calpain 1 and 500 μM of CaCl2 for calpain 2) (final probe concentration: 1 μM). […] The excitation wavelength was 495 nm, and the fluorescence wavelength was 524 nm.

[3] = system: calpain-2 from porcine kidney; experiment: In vitro enzyme assay using calpain (calpain 2); assay type: biochemical; settings: probe 1 μM, 50 mM Tris buffer pH 7.4, 500 μM CaCl2, 25° C., excitation 495 nm, fluorescence 524 nm
Protocol: as §1, §2, §3, §4

[4] = system: calpain activity in HeLa cells; experiment: Live cell imaging of calpain activity in HeLa cells; assay type: cell-based; settings: for visualization of calpain activity in HeLa cells (fluorescence image): 30 minutes with 10 KM of probe, confocal microscope
Protocol: The calpain activity in HeLa cells was visualized by the following procedure using Ac-LLY-HMRG.
(a) HeLa cells were incubated for one hour at 37° C. using FBS (BD Pharmingen stain buffer)-free DMEM (Dulbecco's modified Eagle's medium), and also incubated for 30 minutes by 10 KM of Ac-LLY-HMRG. Fluorescence images and transmission images were taken thereafter using a confocal microscope.
The calpain activity in HeLa cells was visualized by the following procedure using Ac-LM-HMRG.
(a) HeLa cells were incubated for one hour at 37° C. using FBS (BD Pharmingen stain buffer)-free DMEM (Dulbecco's modified Eagle's medium), (b) 1 KM ALLN (calpain selective inhibitor)-containing DMEM (FBS (−)), (c) 2 KM ALLN-containing DMEM (FBS (−)), and (d) 5 KM ALLN-containing DMEM (FBS (−)), and also incubated for 30 minutes by 10 KM of Ac-LM-HMRG. Fluorescence images and transmission images were taken thereafter using a confocal microscope. The results are shown in FIGS. 4a-4d (the left side of each drawing is the fluorescence image; the right side is the transmission image). The scale bar in the drawing is 50 μm.

rat NMDA injury model = experiment: Rat NMDA injury model, fundus photography; assay type: in vivo, SD rats; settings: Ac-LM-HMRG 2 mM, 2 μL to the eye
Protocol: SD rats were placed under general anesthesia using Nembutal. N-methyl-D-aspartic acid (NMDA) (10 mM, 2 μL) or PBS was administered to the eye. The animals were again placed under anesthesia by ketamine-xylazine mixture four hours later, and Ac-LM-HMRG (2 mM, 2 μL) was administered to the eye. The fundus was photographed by an F10 (Nidec confocal biomicroscope).
In FIGS. 5 and 6, locations indicated by an arrow show nerve cells stained by HMRG.

mouse NMDA injury model = experiment: Flat-mounted retinas with mouse NMDA injury model; assay type: in vivo, BL6/J mice; settings: Ac-LM-HMRG 0.5 mM, 1 μL to the eye
Protocol: A study by mouse NMDA injury model was conducted with flat-mounted retinas. […] After one week, the mice were anesthetized by Nembutal, and 1 μL of 30 mM NMDA (PBS solution) or 1 μL of PBS was administered to the vitreous body in the eye. Two weeks later, the mice were again anesthetized by ketamine-xylazine, and Ac-LM-HMRG (0.5 mM, 1 μL, PBS solution) was administered to the eye. One hour after Ac-LM-HMRG administration, Sytox (registered trademark) Orange (for staining cells that have undergone cell death, […], 1 μL, PBS solution) (manufactured by Invitrogen) was administered to the vitreous body. Ten minutes later, the eyeball was removed, fixed for two hours by 4% paraformaldehyde (PFA), and flat-mounted retinas were prepared.

Row | Structure (SMILES) | Absmax [1] [nm] | Emmax [1] [nm] | Φn [1] | increase of absorption and fluorescence intensity due to the enzymatic reaction [2] | increase of absorption and fluorescence intensity due to the enzymatic reaction [3] | visualization of calpain activity in HeLa cells (fluorescence image) [4] | staining of nerve cells in fundus photograph, NMDA group (rat NMDA injury model; NMDA-administered rats, 30, 60, and 90 minutes after administration) | staining of nerve cells in fundus photograph, PBS group (rat NMDA injury model; PBS-administered rats, after 30, 60 and 90 minutes) | staining of flat-mounted retina, NMDA group (mouse NMDA injury model; NMDA group mice) | staining of flat-mounted retina, PBS group (mouse NMDA injury model; PBS group mice) | effect of inhibitor on fluorescence intensity within the cells ([4]; for one hour at 37° C., then 10 KM of Ac-LM-HMRG for 30 minutes)
1 | CSCC[C@H](NC(=O)[C@H](CC(C)C)NC(C)=O)C(=O)Nc1ccc2c(c1)Oc1cc(N)ccc1C21OCc2ccccc21 (stereo partly shown) [Ac-LLY-HMRG] | 470 | 526 | 0.19 | about two-fold | about two-fold | made it possible to monitor the calpain activity inside HeLa cells | – | – | – | – | –
2 | CC(=O)N[C@@H](CC(C)C)C(=O)N[C@@H](CC(C)C)C(=O)N[C@@H](Cc1ccc(O)cc1)C(=O)Nc1ccc2c(c1)Oc1cc(N)ccc1C21OCc2ccccc21 (stereo partly shown) [Ac-LM-HMRG] | 470 | 529 | 0.32 | – | about four-fold | made it possible to monitor the calpain activity inside HeLa cells | nerve cells were clearly stained | nerve cells were only very slightly stained | calpain activity was detected | not found | –
3 | CCCC[C@@H](C=O)NC(=O)[C@H](CC(C)C)NC(=O)[C@H](CC(C)C)NC(C)=O [ALLN, reference compound] (Ac-Leu-Leu-[Nle]-aldehyde) | – | – | – | – | – | – | – | – | – | – | decreased the fluorescence intensity within the cells
4 | N=c1ccc2c(-c3ccccc3CO)c3ccc(N)cc3oc-2c1 [HMRG, reference compound] | 501 | 524 | 0.81 | – | – | – | – | – | – | – | –
